Experimental findings from ChEMBL document CHEMBL4311960, “Two optimized antimicrobial peptides with therapeutic potential for clinical antibiotic-resistant Staphylococcus aureus” (Eur J Med Chem, 2019) are described below.

Assay type in all cases: functional
Test [1] concerns Staphylococcus aureus. Put plainly: Antibacterial activity against methicillin-resistant Staphylococcus aureus ATCC 19041 assessed as reduction in bacterial growth incubated for 24 hrs by serial dilution method. The following applies: ATCC 19041, 24 h.
For test [2], the system named is Staphylococcus aureus. Put plainly: Antibacterial activity against methicillin-resistant Staphylococcus aureus ATCC 19167 assessed as reduction in bacterial growth incubated for 24 hrs by serial dilution method. To be noted: ATCC 19167, 24 h.
Test [3] relates to Staphylococcus aureus. The test is described as follows: Antibacterial activity against Staphylococcus aureus ATCC 29213 assessed as reduction in bacterial growth at MIC measured after 15 passages.
Test [4] has as its system Staphylococcus aureus. Put plainly: Antibacterial activity against methicillin-resistant Staphylococcus aureus ATCC 18908 assessed as reduction in bacterial growth incubated for 24 hrs by serial dilution method. To be noted: ATCC 18908, 24 h.
The subject of test [5] is Staphylococcus aureus. The test is described as follows: Antibacterial activity against Staphylococcus aureus ATCC 25923 assessed as reduction in bacterial growth at MIC measured after 15 passages.
Test [6] deals with Staphylococcus aureus. The test is described as follows: Antibacterial activity against methicillin-resistant Staphylococcus aureus ATCC 18878 assessed as reduction in bacterial growth incubated for 24 hrs by serial dilution method. To be noted: ATCC 18878, 24 h.
The test system of test [7] is Staphylococcus aureus. The test is described as follows: Antibacterial activity against methicillin-resistant Staphylococcus aureus ATCC 19900 assessed as reduction in bacterial growth incubated for 24 hrs by serial dilution method. To be noted: ATCC 19900, 24 h.
The subject of test [8] is Staphylococcus aureus. Put plainly: Antibacterial activity against methicillin-resistant Staphylococcus aureus ATCC 19494 assessed as reduction in bacterial growth incubated for 24 hrs by serial dilution method. The following applies: ATCC 19494, 24 h.
The subject of test [9] is Staphylococcus aureus. Put plainly: Antibacterial activity against methicillin-resistant Staphylococcus aureus ATCC 19047 assessed as reduction in bacterial growth incubated for 24 hrs by serial dilution method. The following applies: ATCC 19047, 24 h.
Test [10] concerns Staphylococcus aureus. Put plainly: Ratio of MIC for resistant Staphylococcus aureus ATCC 29213 for 15 days to MIC for Staphylococcus aureus ATCC 29213 for 24 hrs.
Test [11] concerns Staphylococcus aureus. The test is described as follows: Antibacterial activity against methicillin-resistant Staphylococcus aureus ATCC 18567 assessed as reduction in bacterial growth incubated for 24 hrs by serial dilution method. To be noted: ATCC 18567, 24 h.
Test [12] has as its system Staphylococcus aureus. The test is described as follows: Antibacterial activity against methicillin-resistant Staphylococcus aureus ATCC 19916 assessed as reduction in bacterial growth incubated for 24 hrs by serial dilution method. To be noted: ATCC 19916, 24 h.
Test [13] concerns Staphylococcus aureus. The test is described as follows: Antibacterial activity against methicillin-resistant Staphylococcus aureus ATCC 18475 assessed as reduction in bacterial growth incubated for 24 hrs by serial dilution method. To be noted: ATCC 18475, 24 h.
Test [14] deals with Staphylococcus aureus. The test is described as follows: Antibacterial activity against Staphylococcus aureus ATCC 25923 assessed as reduction in bacterial growth incubated for 24 hrs by serial dilution method. The following applies: ATCC 25923, 24 h, read-out: MIC.
Test [15] has as its system Staphylococcus aureus. The test is described as follows: Antibacterial activity against Staphylococcus aureus ATCC 29213 assessed as reduction in bacterial growth incubated for 24 hrs by serial dilution method. The following applies: ATCC 29213, 24 h.
In test [16] the test system is Staphylococcus aureus. The test is described as follows: Antibacterial activity against Staphylococcus aureus ATCC 6538 assessed as reduction in bacterial growth incubated for 24 hrs by serial dilution method. The following applies: ATCC 6538, 24 h.
Test [17] deals with Staphylococcus aureus. Put plainly: Antibacterial activity against methicillin-resistant Staphylococcus aureus ATCC 18858 assessed as reduction in bacterial growth incubated for 24 hrs by serial dilution method. The following applies: ATCC 18858, 24 h.
The test system of test [18] is Staphylococcus aureus. The test is described as follows: Antibacterial activity against methicillin-resistant Staphylococcus aureus ATCC 19952 assessed as reduction in bacterial growth incubated for 24 hrs by serial dilution method. The following applies: ATCC 19952, 24 h.
The test system of test [19] is Staphylococcus aureus. The test is described as follows: Antibacterial activity against methicillin-resistant Staphylococcus aureus ATCC 19102 assessed as reduction in bacterial growth incubated for 24 hrs by serial dilution method. The following applies: ATCC 19102, 24 h.
Test [20] deals with Staphylococcus aureus. Put plainly: Ratio of MIC for resistant Staphylococcus aureus ATCC 25923 for 15 days to MIC for Staphylococcus aureus ATCC 25923 for 24 hrs.
The test system of test [21] is Staphylococcus aureus. The test is described as follows: Antibacterial activity against methicillin-resistant Staphylococcus aureus ATCC 19498 assessed as reduction in bacterial growth incubated for 24 hrs by serial dilution method. To be noted: ATCC 19498, 24 h.
Test [22] concerns Staphylococcus aureus. Put plainly: Antibacterial activity against methicillin-resistant Staphylococcus aureus ATCC 19423 assessed as reduction in bacterial growth incubated for 24 hrs by serial dilution method. To be noted: ATCC 19423, 24 h.
The subject of test [23] is Staphylococcus aureus. The test is described as follows: Antibacterial activity against methicillin-resistant Staphylococcus aureus ATCC 18466 assessed as reduction in bacterial growth incubated for 24 hrs by serial dilution method. To be noted: ATCC 18466, 24 h, read-out: MIC.
The subject of test [24] is Staphylococcus aureus. Put plainly: Antibacterial activity against Staphylococcus aureus ATCC 8325.4 assessed as reduction in bacterial growth incubated for 24 hrs by serial dilution method. The following applies: ATCC 8325.4, 24 h.

SMILES strings stand for the structures. Converted amounts (≈) assume the structure as drawn.

Take `COc1cccc(OC)c1C(=O)N[C@@H]1C(=O)N2[C@@H]1SC(C)(C)[C@@H]2C(=O)O` [METHICILLIN]: the MIC in the test on Staphylococcus aureus [1], in the test with Staphylococcus aureus [2], with Staphylococcus aureus [4], in the test with Staphylococcus aureus [6], with Staphylococcus aureus [7] and with Staphylococcus aureus [8] was more than 1200 mg/L throughout. In addition, the MIC in the test on Staphylococcus aureus [9] was more than 1200 mg/L; in the test on Staphylococcus aureus [11] it was more than 1200 mg/L; in the test with Staphylococcus aureus [12] it was more than 1200 mg/L; in the test with Staphylococcus aureus [13], more than 1200 mg/L; in the test on Staphylococcus aureus [14], 1 mg/L (≈ 0.00263 mM); in the test on Staphylococcus aureus [15] it was 1 mg/L (≈ 0.00263 mM). Moreover, the MIC was 1 mg/L (≈ 0.00263 mM) in the test on Staphylococcus aureus [16]; more than 1200 mg/L in the test on Staphylococcus aureus [17]; more than 1200 mg/L with Staphylococcus aureus [18]; more than 1200 mg/L in the test with Staphylococcus aureus [19]; more than 1200 mg/L in the test with Staphylococcus aureus [21]; more than 1200 mg/L in the test with Staphylococcus aureus [22]. The MIC with Staphylococcus aureus [23] was more than 1200 mg/L; in the test on Staphylococcus aureus [24], 1 mg/L (≈ 0.00263 mM). Also, the “fold change (FC)” value in the test on Staphylococcus aureus [3] and in the test on Staphylococcus aureus [5] was 8 - 16 in each case. In addition, the Ratio in the test on Staphylococcus aureus [10] and with Staphylococcus aureus [20] was 8 - 16 throughout.

A word on the MIC: it is the lowest concentration found to suppress growth.
